Source: ChEMBL document CHEMBL1201862, “PubChem BioAssay data set” (2004)
Calls of active or inactive are those of the source.

What was measured:
[1] = target: Neuropeptide Y receptor type 1 (Homo sapiens, UniProt P25929); format: functional;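 further: HEK293 cells with a CNG channel challenged with NPY then isoproterenol; potency as antagonist that reverses NPY suppression of cAMP signal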
[2] = target: Neuropeptide Y receptor type 2 (Homo sapiens, UniProt P49146); format: functional, cell-based;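 further: HEK293 cells expressing the receptor and a CNG channel; stimulus was NPY near EC95 followed by isoproterenol to raise cAMP; antagonist potency measured as restoring cAMP signal that NPY suppresses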
[3] = Trypanosoma cruzi growth suppression in host cells – NIH3T3 host cells, beta-gal luminescence, confirmation (AID 2044); format: functional, cell-based;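 further: intracellular parasites grown in NIH/3T3 mouse fibroblasts as host cells; luminescent beta-galactosidase reporter signal from transgenic T. cruzi replicating inside host cells; inhibitors lower the luminescence signal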
Mucolipin-3 = Mucolipin-3 (Homo sapiens, UniProt Q8TDD5); assay: Dose response cell-based high-throughput screening assay for agonists of the transient receptor potential channel ML3 (TRPML3). [Related pubchem assays: 1526, 1424, 1448 ]; format: functional
Chain of Mucolipin-3 (Q8TDD5 whole entry): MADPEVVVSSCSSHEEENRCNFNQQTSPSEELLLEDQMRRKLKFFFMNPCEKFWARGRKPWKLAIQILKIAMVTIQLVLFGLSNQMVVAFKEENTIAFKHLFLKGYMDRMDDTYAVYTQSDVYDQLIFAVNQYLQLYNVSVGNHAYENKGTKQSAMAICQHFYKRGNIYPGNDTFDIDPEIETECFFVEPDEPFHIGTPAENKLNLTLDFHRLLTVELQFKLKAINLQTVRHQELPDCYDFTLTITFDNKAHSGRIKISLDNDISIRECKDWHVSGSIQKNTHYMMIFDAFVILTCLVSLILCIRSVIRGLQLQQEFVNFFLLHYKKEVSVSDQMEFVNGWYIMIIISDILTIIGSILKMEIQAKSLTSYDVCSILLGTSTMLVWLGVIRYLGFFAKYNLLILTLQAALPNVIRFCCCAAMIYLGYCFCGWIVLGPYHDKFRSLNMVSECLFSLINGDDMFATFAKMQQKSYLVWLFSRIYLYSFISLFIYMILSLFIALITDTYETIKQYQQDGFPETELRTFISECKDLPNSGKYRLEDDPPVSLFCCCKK

[4] = NIH3T3 cell viability loss – ATP luminescence, mouse fibroblasts, counter-screen, dose response (AID 2010); format: functional, cell-based;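 further: cells exposed to compound for about 90 hours before reading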
Ion channel NompC = Ion channel NompC (Danio rerio, UniProt Q7T1G6); assay: Fluorescence counterscreen assay for TRPML3 agonists: dose response cell-based high-throughput screening assay to identify agonists of the transient receptor potential channel N1 (TRPN1). [Related pubchem assays: 1526, 1424, 1448 ]; format: functional
Chain of Ion channel NompC (Q7T1G6 whole entry): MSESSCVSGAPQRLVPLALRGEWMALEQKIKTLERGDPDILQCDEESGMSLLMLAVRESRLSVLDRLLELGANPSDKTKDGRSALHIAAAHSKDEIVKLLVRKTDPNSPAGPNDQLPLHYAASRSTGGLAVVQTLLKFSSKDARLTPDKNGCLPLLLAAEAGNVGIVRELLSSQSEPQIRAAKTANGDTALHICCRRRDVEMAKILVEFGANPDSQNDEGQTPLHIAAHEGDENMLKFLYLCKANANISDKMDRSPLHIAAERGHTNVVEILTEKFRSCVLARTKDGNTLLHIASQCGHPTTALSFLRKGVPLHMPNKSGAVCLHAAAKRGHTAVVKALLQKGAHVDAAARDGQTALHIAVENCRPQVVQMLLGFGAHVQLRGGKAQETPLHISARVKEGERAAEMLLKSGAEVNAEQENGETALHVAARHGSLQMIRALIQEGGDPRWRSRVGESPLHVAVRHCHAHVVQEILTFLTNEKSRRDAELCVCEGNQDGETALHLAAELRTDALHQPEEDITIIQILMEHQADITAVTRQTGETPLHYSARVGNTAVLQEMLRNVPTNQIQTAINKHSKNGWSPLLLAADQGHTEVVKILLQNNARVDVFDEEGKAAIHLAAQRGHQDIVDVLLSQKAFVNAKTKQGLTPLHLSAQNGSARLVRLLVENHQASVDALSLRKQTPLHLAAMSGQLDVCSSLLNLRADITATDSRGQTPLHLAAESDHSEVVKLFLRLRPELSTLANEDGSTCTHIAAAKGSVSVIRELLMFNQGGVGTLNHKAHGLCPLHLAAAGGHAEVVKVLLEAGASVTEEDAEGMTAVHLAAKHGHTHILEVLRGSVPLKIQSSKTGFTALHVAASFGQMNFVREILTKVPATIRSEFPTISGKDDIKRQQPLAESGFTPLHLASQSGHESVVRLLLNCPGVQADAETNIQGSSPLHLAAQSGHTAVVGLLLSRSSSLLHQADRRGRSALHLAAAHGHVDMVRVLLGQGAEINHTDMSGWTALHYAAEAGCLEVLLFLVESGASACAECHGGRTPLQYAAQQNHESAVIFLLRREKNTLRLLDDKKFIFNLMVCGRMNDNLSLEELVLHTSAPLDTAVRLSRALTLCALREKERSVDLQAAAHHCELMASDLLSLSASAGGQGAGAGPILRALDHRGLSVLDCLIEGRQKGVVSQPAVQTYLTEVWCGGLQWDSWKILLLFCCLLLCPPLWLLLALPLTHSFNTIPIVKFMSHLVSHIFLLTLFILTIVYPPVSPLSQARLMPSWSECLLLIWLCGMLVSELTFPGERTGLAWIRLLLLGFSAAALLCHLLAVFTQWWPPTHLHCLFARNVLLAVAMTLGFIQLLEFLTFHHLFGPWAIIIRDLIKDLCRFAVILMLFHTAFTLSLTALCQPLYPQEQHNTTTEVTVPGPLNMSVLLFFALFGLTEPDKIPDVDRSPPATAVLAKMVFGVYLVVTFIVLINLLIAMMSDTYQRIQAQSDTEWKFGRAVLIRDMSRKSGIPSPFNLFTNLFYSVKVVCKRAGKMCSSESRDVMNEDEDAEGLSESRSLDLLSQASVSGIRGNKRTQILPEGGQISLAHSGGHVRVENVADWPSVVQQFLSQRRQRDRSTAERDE

[5] = target: Epstein-Barr nuclear antigen 1 (Epstein-Barr virus (strain B95-8) (HHV-4) (Human herpesvirus 4), UniProt P03211); assay: inhibition of EBV nuclear antigen 1 DNA binding – biochemical, fluorescence polarization, 1536-well, dose response (AID 2381); set-up: species or system human gammaherpesvirus 4;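 further: fluorescence polarization of a Cy5 DNA probe bound by EBNA-1 protein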
[6] = target: Lytic switch protein BZLF1 (Epstein-Barr virus (strain B95-8) (HHV-4) (Human herpesvirus 4), UniProt P03206); assay: inhibition of BZLF1 ZTA DNA binding – biochemical, fluorescence polarization, Epstein-Barr virus, 1536-well, counter-screen for EBNA-1 inhibitor project, dose response (AID 2377); set-up: species or system human gammaherpesvirus 4;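 further: fluorescence polarization of Cy5-labelled ZRE DNA probe bound by purified Zta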
[7] = target: Protein-tyrosine kinase 2-beta (Homo sapiens, UniProt Q14289);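 further: potency of inhibitors of PYK2 kinase phosphorylation of poly-GT substrate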
[8] = target: T1, Replicative DNA helicase DnaB (Mycobacterium tuberculosis, UniProt P9WMR3); assay: DnaB intein splicing inhibitors, dose response, biochemical, cell-free fluorescence (AID 449749); format: functional
T1 sequence (P9WMR3 whole entry): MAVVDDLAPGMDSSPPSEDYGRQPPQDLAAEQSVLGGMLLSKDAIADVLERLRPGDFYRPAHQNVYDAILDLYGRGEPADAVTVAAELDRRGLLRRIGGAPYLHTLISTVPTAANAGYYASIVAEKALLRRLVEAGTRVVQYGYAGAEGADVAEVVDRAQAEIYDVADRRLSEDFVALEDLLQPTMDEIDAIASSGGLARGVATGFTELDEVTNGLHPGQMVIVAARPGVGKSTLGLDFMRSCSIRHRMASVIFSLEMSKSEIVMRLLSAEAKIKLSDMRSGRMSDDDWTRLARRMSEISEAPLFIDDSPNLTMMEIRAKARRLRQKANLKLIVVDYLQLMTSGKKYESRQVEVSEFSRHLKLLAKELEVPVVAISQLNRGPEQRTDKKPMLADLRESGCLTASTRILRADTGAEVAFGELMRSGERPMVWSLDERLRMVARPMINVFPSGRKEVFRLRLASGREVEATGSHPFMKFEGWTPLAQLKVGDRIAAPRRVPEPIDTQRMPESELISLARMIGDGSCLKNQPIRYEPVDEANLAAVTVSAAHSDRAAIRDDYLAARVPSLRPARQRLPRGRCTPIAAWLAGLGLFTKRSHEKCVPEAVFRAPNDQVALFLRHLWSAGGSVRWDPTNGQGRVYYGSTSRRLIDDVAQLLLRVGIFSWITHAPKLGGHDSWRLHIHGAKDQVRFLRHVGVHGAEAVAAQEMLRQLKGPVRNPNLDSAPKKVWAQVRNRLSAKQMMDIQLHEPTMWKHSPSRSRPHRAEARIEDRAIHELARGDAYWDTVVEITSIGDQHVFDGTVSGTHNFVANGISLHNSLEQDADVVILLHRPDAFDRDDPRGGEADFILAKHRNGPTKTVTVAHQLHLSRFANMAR

[9] = target: T2, Apoptotic protease-activating factor 1 (Homo sapiens, UniProt O14727); format: functional
T2 sequence (O14727 whole entry): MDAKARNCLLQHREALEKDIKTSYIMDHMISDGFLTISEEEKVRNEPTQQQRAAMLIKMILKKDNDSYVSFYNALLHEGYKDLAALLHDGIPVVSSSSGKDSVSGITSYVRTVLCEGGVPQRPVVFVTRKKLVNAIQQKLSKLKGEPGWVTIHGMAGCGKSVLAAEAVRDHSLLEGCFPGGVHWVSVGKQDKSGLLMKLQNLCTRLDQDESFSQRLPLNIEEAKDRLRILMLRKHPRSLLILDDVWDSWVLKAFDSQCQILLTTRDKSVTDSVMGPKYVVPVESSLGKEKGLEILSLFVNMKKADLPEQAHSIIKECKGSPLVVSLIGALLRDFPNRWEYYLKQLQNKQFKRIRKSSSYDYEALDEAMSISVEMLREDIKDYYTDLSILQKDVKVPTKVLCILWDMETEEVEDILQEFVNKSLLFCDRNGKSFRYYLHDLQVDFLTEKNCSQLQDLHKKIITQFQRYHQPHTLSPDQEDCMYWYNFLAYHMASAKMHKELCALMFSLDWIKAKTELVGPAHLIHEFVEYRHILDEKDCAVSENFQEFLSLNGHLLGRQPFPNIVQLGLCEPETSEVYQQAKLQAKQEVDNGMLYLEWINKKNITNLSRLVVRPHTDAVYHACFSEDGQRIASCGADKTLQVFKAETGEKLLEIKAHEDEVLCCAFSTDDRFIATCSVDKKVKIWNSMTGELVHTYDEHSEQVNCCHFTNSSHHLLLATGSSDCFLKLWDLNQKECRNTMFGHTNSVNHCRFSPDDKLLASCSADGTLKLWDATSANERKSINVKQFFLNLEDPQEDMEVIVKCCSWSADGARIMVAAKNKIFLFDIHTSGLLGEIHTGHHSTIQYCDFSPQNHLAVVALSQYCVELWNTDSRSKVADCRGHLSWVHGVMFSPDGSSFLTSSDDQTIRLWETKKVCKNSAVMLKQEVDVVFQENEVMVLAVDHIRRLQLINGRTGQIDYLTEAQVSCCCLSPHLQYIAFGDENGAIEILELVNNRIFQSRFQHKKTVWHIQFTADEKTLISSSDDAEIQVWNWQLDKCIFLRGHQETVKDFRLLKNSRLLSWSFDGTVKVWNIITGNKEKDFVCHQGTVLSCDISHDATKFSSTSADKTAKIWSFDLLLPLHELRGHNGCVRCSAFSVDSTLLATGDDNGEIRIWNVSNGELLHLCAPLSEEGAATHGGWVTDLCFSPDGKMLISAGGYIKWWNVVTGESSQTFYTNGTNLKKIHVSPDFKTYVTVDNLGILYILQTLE

Protein RecA = target: T3, Protein RecA (Mycobacterium tuberculosis, UniProt P9WHJ3); assay: Fluorescence Cell-Free Homogeneous Dose Retest to Identify Inhibitors of RecA-Intein Splicing Activity. [Related pubchem assays (depositor defined):AID2097, AID2223, AID489010, AID492950]; format: functional
T3 sequence (P9WHJ3 whole entry): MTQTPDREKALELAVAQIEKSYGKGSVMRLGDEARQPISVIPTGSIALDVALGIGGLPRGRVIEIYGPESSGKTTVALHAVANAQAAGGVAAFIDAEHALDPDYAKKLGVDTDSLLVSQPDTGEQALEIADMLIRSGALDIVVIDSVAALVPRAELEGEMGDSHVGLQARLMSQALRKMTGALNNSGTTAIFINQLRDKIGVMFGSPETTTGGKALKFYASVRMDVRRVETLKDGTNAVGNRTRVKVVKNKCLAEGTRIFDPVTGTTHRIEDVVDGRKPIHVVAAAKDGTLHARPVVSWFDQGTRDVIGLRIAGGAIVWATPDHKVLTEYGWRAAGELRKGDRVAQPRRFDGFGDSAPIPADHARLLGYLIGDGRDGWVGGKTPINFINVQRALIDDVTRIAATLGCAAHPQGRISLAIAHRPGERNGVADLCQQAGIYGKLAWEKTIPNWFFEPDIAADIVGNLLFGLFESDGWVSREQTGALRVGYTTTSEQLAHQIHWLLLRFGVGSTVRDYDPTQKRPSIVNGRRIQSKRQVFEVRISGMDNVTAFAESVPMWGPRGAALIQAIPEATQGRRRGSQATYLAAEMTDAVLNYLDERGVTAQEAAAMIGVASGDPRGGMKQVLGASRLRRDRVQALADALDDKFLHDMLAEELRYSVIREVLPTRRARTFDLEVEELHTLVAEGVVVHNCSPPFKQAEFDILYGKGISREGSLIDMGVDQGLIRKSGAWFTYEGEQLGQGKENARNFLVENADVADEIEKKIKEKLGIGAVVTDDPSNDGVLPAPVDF

[10] = target: T4, Sentrin-specific protease 8 (Homo sapiens, UniProt Q96LD8); format: functional
T4 sequence (Q96LD8 whole entry): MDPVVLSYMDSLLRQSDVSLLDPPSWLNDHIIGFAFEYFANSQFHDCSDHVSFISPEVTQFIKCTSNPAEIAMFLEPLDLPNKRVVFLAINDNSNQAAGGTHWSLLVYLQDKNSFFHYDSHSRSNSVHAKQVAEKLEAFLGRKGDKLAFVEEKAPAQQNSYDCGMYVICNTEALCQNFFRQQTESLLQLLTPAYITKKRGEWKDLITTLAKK

[11] = target: T4, Sentrin-specific protease 8; format: functional; remark: listed apart in the source
Bcl-2-like protein 10 = Bcl-2-like protein 10 (Homo sapiens, UniProt Q9HD36); assay: Concentration-response of Bcl-B inhibitors by biochemical FP with TR3 (AID 1243); format: functional
[12] = antiviral protection against BTV-induced cell death – arbovirus, BSR cells, confirmation (AID 1250); format: functional;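 further: protection from viral cytopathic effect measured as cell viability by ATP luminescence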
[13] = tested on: Streptococcus sp. 'group A'; assay: Streptococcus pyogenes SK(-)GAS viability under kanamycin – luminescence, BacTiterGlo, confirmation, counter-screen for streptokinase expression inhibitor project, dose response (AID 1900); format: functional, organism-based
Streptokinase A = target: T5, Streptokinase A (Streptococcus pyogenes serotype M1, UniProt P10520); assay: viability-normalized secreted streptokinase activity reduction – plasminogen activation absorbance, OD405, dose response (AID 1914); format: functional, Streptococcus pyogenes M1 GAS;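 further: secreted streptokinase activity via plasminogen activation per viability signal from cell pellet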
T5 sequence (P10520 whole entry): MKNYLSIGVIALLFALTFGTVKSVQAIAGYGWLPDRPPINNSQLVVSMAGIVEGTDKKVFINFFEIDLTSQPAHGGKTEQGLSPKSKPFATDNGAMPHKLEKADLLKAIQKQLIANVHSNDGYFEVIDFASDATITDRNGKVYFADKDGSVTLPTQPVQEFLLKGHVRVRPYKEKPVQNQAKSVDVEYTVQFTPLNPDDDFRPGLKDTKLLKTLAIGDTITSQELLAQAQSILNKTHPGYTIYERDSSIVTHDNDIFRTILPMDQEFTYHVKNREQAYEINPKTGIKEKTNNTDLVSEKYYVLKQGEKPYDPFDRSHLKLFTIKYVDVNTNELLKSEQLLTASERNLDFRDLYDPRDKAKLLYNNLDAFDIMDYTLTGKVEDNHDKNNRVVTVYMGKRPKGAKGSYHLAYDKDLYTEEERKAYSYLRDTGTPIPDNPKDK

[14] = CCR5-tropic HIV-1 fusion blockers – cell-based, CCR5-tropic Env, dose response (AID 2279); format: functional
[15] = target: Induced myeloid leukemia cell differentiation protein Mcl-1 (Homo sapiens, UniProt Q07820); format: functional
Streptococcus = assay: GAS UMAA2166 growth inhibition – luminescence, BacTiterGlo, counter-screen for streptokinase expression inhibitor project, dose response (AID 1915); format: functional, organism-based;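 further: potency for reduction of bacterial viability or growth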
[16] = target: Sphingosine 1-phosphate receptor 2 (Homo sapiens, UniProt O95136); assay: Dose Response Cell Based Assay for Agonists of the S1P2 Receptor of Purchased Analogues. [Related pubchem assays: 729, 843, 854, 736 ]; format: functional
[17] = target: 5-hydroxytryptamine receptor 1E (Homo sapiens, UniProt P28566); assay: Counterscreen assay for S1P3 antagonists: Dose response cell-based high throughput screening assay to identify antagonists of the 5-Hydroxytryptamine Receptor Subtype 1E (5HT1E). [Related pubchem assays: 1429, 485 ]; format: functional
[18] = target: Sphingosine 1-phosphate receptor 3 (Homo sapiens, UniProt Q99500); assay: Dose response cell-based high throughput screening assay for antagonists of the Sphingosine 1-Phosphate Receptor 3 (S1P3). [Related pubchem assays: 1429, 485 ]; format: functional
Fatty acid synthase [19] = target: T6, Fatty acid synthase (Homo sapiens, UniProt P49327); assay: inhibition of human FAS-TE enzyme activity – biochemical, endpoint fluorescence intensity, uHTS hits, dose response (AID 624327); format: functional;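 further: fluorescence from hydrolysis of an O-methyl fluorescein acyl ester substrate by the enzyme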
T6 sequence (P49327 whole entry): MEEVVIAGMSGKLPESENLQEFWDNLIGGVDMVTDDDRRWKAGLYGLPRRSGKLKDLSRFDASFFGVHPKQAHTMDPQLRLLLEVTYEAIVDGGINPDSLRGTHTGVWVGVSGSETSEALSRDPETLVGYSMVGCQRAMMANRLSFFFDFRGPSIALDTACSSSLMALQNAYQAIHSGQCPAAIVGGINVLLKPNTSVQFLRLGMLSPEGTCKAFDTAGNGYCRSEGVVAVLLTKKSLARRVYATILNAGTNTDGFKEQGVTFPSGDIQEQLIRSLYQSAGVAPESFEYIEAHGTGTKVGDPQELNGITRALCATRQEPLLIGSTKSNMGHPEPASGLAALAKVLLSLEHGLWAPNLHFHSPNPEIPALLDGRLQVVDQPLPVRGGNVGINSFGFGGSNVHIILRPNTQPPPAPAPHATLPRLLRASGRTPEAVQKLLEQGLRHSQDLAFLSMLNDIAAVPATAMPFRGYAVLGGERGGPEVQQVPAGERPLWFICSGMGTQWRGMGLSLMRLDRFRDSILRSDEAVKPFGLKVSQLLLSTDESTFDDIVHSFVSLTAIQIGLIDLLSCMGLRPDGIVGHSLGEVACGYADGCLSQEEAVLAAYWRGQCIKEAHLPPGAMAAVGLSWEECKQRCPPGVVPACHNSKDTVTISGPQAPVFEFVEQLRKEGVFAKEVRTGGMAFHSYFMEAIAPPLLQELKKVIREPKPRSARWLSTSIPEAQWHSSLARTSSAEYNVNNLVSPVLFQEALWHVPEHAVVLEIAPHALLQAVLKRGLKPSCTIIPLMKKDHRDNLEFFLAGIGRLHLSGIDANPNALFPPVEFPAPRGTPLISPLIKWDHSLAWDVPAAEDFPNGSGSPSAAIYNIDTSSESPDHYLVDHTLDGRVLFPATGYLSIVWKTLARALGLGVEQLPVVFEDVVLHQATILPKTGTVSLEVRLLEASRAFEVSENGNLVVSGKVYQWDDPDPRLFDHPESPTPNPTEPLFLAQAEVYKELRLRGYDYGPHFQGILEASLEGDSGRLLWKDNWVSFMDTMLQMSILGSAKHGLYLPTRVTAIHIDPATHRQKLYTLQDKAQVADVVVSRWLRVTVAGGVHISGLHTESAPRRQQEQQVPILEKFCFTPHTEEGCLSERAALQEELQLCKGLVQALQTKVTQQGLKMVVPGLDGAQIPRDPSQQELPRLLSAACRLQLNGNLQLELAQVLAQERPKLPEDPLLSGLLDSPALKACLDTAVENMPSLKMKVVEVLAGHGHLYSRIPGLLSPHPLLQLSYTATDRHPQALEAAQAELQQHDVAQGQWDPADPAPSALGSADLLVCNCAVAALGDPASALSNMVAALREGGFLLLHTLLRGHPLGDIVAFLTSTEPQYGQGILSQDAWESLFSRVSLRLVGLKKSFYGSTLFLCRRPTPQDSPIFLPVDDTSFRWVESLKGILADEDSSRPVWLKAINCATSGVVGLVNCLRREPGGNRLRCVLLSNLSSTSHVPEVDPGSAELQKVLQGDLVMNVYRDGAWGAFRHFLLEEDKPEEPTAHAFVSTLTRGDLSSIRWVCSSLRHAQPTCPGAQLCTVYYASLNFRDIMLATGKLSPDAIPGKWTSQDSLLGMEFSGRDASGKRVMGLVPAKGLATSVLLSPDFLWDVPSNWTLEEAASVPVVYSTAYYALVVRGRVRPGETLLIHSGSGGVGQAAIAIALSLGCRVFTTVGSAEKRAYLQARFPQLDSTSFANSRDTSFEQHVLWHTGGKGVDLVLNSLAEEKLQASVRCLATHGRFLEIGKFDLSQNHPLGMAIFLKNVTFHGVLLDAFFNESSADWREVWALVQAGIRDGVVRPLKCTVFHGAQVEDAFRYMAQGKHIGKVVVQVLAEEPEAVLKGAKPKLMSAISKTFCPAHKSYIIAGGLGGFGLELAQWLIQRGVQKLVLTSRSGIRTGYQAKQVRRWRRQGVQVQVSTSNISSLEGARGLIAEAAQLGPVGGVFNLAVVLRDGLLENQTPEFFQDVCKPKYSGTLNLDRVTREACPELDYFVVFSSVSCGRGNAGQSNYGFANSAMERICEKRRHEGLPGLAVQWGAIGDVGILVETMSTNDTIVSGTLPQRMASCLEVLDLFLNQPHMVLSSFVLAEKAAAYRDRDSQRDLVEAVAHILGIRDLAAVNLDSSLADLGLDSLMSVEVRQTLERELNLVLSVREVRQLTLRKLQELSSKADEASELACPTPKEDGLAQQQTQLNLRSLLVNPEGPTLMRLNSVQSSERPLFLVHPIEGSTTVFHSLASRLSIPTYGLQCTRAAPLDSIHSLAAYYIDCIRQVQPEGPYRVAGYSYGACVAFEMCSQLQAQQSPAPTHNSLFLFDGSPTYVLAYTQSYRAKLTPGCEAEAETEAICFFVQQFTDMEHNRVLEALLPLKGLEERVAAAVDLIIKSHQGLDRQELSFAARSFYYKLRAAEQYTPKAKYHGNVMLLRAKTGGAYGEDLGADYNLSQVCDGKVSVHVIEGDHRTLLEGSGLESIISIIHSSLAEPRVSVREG

Fatty acid synthase [20] = target: T6, Fatty acid synthase; assay: inhibition of human FAS-TE enzyme activity – biochemical, kinetic fluorescence intensity, dose response (AID 624326); format: functional;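 further: rate of fluorescence rise from hydrolysis of a fluorogenic O-methyl fluorescein ester substrate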

Chain of Neuropeptide Y receptor type 1 (P25929 whole entry): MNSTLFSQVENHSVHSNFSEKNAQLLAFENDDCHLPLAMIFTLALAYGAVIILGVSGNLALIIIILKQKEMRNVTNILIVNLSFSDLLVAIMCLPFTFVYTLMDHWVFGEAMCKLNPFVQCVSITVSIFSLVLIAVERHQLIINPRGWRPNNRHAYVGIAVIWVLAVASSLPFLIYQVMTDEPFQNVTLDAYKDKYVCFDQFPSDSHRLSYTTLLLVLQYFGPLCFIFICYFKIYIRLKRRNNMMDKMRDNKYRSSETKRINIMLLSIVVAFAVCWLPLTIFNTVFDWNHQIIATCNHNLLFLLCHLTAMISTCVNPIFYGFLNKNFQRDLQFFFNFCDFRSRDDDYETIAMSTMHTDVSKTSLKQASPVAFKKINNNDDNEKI

N#Cc1nc(COc2ccc(Cl)cc2)oc1N1CCCCCC1
IC50 [1]: 6.66 µM (active)
IC50 [2]: 16.1 µM (not active)

CCN(CC)c1ccc(NC(=O)COc2ccc(N(C)S(=O)(=O)c3cccs3)cc2)cc1
EC50 [3]: 2.28 µM (active)
EC50 (Mucolipin-3): > 29.9 µM (not active)
EC50 [4]: > 30 µM (not active)
EC50 (Ion channel NompC): > 29.9 µM (not active)

COC(=O)c1cccc(S(=O)(=O)N2CCC(NC(=O)Nc3cccc(F)c3)CC2)c1
IC50 [5]: 6.09 µM (active)
IC50 [6]: > 111 µM (not active)

O=C1Cc2ccccc2C(=O)N1Cc1ccccc1
IC50 [7]: > 69.5 µM (not active)
AC50 [8]: > 380 µM (inconclusive)
IC50 [9]: 3.89 µM (active)
EC50 (Protein RecA): 2.04 µM (active)
IC50 [10]: > 100 µM (inactive)
IC50 [11]: 1.06 µM (active)

O=C(O)c1ccc2c(c1)C1C=CCC1C(c1cccc([N+](=O)[O-])c1)N2 (stereo unspecified)
EC50 (Bcl-2-like protein 10): 1.75 µM (active)

COc1ccc(/C=C/C(=O)Nc2cc(C(F)(F)F)ccc2Cl)cc1OC
IC50 [12]: 27.9 µM (active)

CC(C)(C)c1cc(-c2csc(Nc3ccccc3)[n+]2Cc2ccc(C(=O)O)cc2)cc(C(C)(C)C)c1O
EC50 [13]: 1.64 µM (active)
EC50 (Streptokinase A): > 150 µM (not active)
IC50 [14]: 20.7 µM (active)
IC50 [15]: 2.01 µM (active)
EC50 (Streptococcus): 2.87 µM (active)

CNC(=O)c1ccc(CN(C)CC(=O)c2cc(C)n(Cc3ccccc3)c2C)cc1
EC50 [16]: > 30 µM (not active)

Cc1ccc(NC(=O)C2(c3ccc([N+](=O)[O-])cc3)CCCC2)cc1
IC50 [17]: 9.48 µM (active)
IC50 [18]: 6.92 µM (active)
IC50 (Fatty acid synthase [19]): 14.6 µM (active)
IC50 (Fatty acid synthase [20]): 8.73 µM (active)
